Key:
Assay in all cases: relative viability (nuclei count vs DMSO), 5 days (fraction); higher = more cells survive
NCI-H1975 = system: NCI-H1975
Method in brief: (§1)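 Medians of duplicate plates are given as relative viability. That measure is the nuclei count in treated wells divided by the count in vehicle wells. Counts were taken on 4× images of lung cancer cell lines in 1536-well plates, 5 days after pin-tool dosing the day after seeding with one drug alone or a fixed anchor-drug dose plus five library-drug doses (not always all listed) in √10 steps.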

LCLC-103H = system: LCLC-103H
Method in brief: as §1

NCI-H727 = system: NCI-H727
Method in brief: as §1

UMC-11 = system: UMC-11
Method in brief: as §1

EPLC-272H = system: EPLC-272H
Method in brief: as §1

NCI-H1437 = system: NCI-H1437
Method in brief: as §1

NCI-H358 = system: NCI-H358
Method in brief: as §1

HCC-366 = system: HCC-366
Method in brief: as §1

NCI-H1944 = system: NCI-H1944
Method in brief: as §1

NCI-H2023 = system: NCI-H2023
Method in brief: as §1

HARA = system: HARA
Method in brief: as §1

HCC-78 = system: HCC-78
Method in brief: as §1

NCI-H2405 = system: NCI-H2405
Method in brief: as §1

NCI-H1395 = system: NCI-H1395
Method in brief: as §1

HCC-827 = system: HCC-827
Method in brief: as §1

COR-L23 = system: COR-L23
Method in brief: as §1

COR-L 105 = system: COR-L 105
Method in brief: as §1

NCI-H2085 = system: NCI-H2085
Method in brief: as §1

SK-LU-1 = system: SK-LU-1
Method in brief: as §1

NCI-H661 = system: NCI-H661
Method in brief: as §1

HCC-15 = system: HCC-15
Method in brief: as §1

O=c1[nH]c2ccccc2n1C1CCN(CCCC(c2ccc(F)cc2)c2ccc(F)cc2)CC1 [Pimozide] + COc1cc2c(Oc3ccc(NC(=O)C4(C(=O)Nc5ccc(F)cc5)CC4)cc3F)ccnc2cc1OCCCN1CCOCC1 [Foretinib] (partner 0.25 µM)
relative viability (NCI-H1975; first compound 0.08 µM): 0.948 | relative viability (NCI-H1975; first compound 0.253 µM): 0.84 | relative viability (NCI-H1975; first compound 0.8 µM): 1.02 | relative viability (NCI-H1975; first compound 2.53 µM): 0.847 | relative viability (NCI-H1975; first compound 8 µM): 0.952 | relative viability (LCLC-103H; first compound 0.08 µM): 0.946 | relative viability (LCLC-103H; first compound 0.253 µM): 0.716 | relative viability (LCLC-103H; first compound 0.8 µM): 0.747 | relative viability (LCLC-103H; first compound 2.53 µM): 0.678 | relative viability (LCLC-103H; first compound 8 µM): 0.591 | relative viability (NCI-H727; first compound 0.08 µM): 0.679 | relative viability (NCI-H727; first compound 0.253 µM): 0.87 | relative viability (NCI-H727; first compound 0.8 µM): 0.798 | relative viability (NCI-H727; first compound 2.53 µM): 0.722 | relative viability (NCI-H727; first compound 8 µM): 0.782 | relative viability (UMC-11; first compound 0.08 µM): 1.05 | relative viability (UMC-11; first compound 0.253 µM): 1.01 | relative viability (UMC-11; first compound 0.8 µM): 1 | relative viability (UMC-11; first compound 2.53 µM): 1.14 | relative viability (UMC-11; first compound 8 µM): 1.07 | relative viability (EPLC-272H; first compound 0.08 µM): 0.631 | relative viability (EPLC-272H; first compound 0.253 µM): 0.667 | relative viability (EPLC-272H; first compound 0.8 µM): 0.539 | relative viability (EPLC-272H; first compound 2.53 µM): 0.175 | relative viability (EPLC-272H; first compound 8 µM): 0.567 | relative viability (NCI-H1437; first compound 0.08 µM): 1.27 | relative viability (NCI-H1437; first compound 0.253 µM): 1.21 | relative viability (NCI-H1437; first compound 0.8 µM): 1.21 | relative viability (NCI-H1437; first compound 2.53 µM): 1.28 | relative viability (NCI-H1437; first compound 8 µM): 1.18 | relative viability (NCI-H358; first compound 0.08 µM): 0.671 | relative viability (NCI-H358; first compound 0.253 µM): 0.661 | relative viability (NCI-H358; first compound 0.8 µM): 0.578 | relative viability (NCI-H358; first compound 2.53 µM): 0.562 | relative viability (NCI-H358; first compound 8 µM): 0.695 | relative viability (HCC-366; first compound 0.08 µM): 0.862 | relative viability (HCC-366; first compound 0.253 µM): 0.952 | relative viability (HCC-366; first compound 0.8 µM): 0.866 | relative viability (HCC-366; first compound 2.53 µM): 0.925 | relative viability (HCC-366; first compound 8 µM): 0.859 | relative viability (NCI-H1944; first compound 0.08 µM): 0.901 | relative viability (NCI-H1944; first compound 0.253 µM): 0.891 | relative viability (NCI-H1944; first compound 0.8 µM): 0.807 | relative viability (NCI-H1944; first compound 2.53 µM): 0.735 | relative viability (NCI-H1944; first compound 8 µM): 0.817 | relative viability (NCI-H2023; first compound 0.08 µM): 0.687 | relative viability (NCI-H2023; first compound 0.253 µM): 0.916 | relative viability (NCI-H2023; first compound 0.8 µM): 0.91 | relative viability (NCI-H2023; first compound 2.53 µM): 0.705 | relative viability (NCI-H2023; first compound 8 µM): 0.64 | relative viability (HARA; first compound 0.253 µM): 0.874 | relative viability (HARA; first compound 0.8 µM): 0.873 | relative viability (HARA; first compound 2.53 µM): 0.733 | relative viability (HARA; first compound 8 µM): 0.766 | relative viability (HCC-78; first compound 0.08 µM): 0.536 | relative viability (HCC-78; first compound 0.8 µM): 0.482 | relative viability (HCC-78; first compound 2.53 µM): 0.564 | relative viability (HCC-78; first compound 8 µM): 0.573 | relative viability (NCI-H2405; first compound 0.08 µM): 1.03 | relative viability (NCI-H2405; first compound 0.253 µM): 1.02 | relative viability (NCI-H2405; first compound 0.8 µM): 1.04 | relative viability (NCI-H2405; first compound 2.53 µM): 0.961 | relative viability (NCI-H2405; first compound 8 µM): 0.838 | relative viability (NCI-H1395; first compound 0.08 µM): 1.02 | relative viability (NCI-H1395; first compound 0.253 µM): 0.975 | relative viability (NCI-H1395; first compound 0.8 µM): 0.953 | relative viability (NCI-H1395; first compound 2.53 µM): 1.03 | relative viability (NCI-H1395; first compound 8 µM): 0.91 | relative viability (HCC-827; first compound 0.253 µM): 1.01 | relative viability (HCC-827; first compound 0.8 µM): 0.915 | relative viability (HCC-827; first compound 2.53 µM): 0.967 | relative viability (HCC-827; first compound 8 µM): 0.904 | relative viability (COR-L23; first compound 0.08 µM): 1.01 | relative viability (COR-L23; first compound 0.253 µM): 0.951 | relative viability (COR-L23; first compound 0.8 µM): 0.909 | relative viability (COR-L23; first compound 2.53 µM): 1.05 | relative viability (COR-L23; first compound 8 µM): 0.905 | relative viability (COR-L 105; first compound 0.253 µM): 1.01 | relative viability (COR-L 105; first compound 0.8 µM): 0.99 | relative viability (COR-L 105; first compound 2.53 µM): 0.876 | relative viability (COR-L 105; first compound 8 µM): 0.779 | relative viability (NCI-H2085; first compound 0.08 µM): 0.956 | relative viability (NCI-H2085; first compound 0.253 µM): 0.899 | relative viability (NCI-H2085; first compound 0.8 µM): 1.1 | relative viability (NCI-H2085; first compound 2.53 µM): 0.909 | relative viability (NCI-H2085; first compound 8 µM): 0.949 | relative viability (SK-LU-1; first compound 0.08 µM): 0.888 | relative viability (SK-LU-1; first compound 0.253 µM): 0.793 | relative viability (SK-LU-1; first compound 0.8 µM): 0.783 | relative viability (SK-LU-1; first compound 2.53 µM): 0.777 | relative viability (SK-LU-1; first compound 8 µM): 0.637 | relative viability (NCI-H661; first compound 0.08 µM): 1.02 | relative viability (NCI-H661; first compound 0.253 µM): 1.03 | relative viability (NCI-H661; first compound 0.8 µM): 0.929 | relative viability (NCI-H661; first compound 2.53 µM): 0.921 | relative viability (NCI-H661; first compound 8 µM): 0.907 | relative viability (HCC-15; first compound 0.08 µM): 1.09 | relative viability (HCC-15; first compound 0.253 µM): 1.01 | relative viability (HCC-15; first compound 0.8 µM): 0.868 | relative viability (HCC-15; first compound 2.53 µM): 0.964 | relative viability (HCC-15; first compound 8 µM): 0.94

Reference: the supplement of paper PMC10307832
